Results reported in the NIST ThermoML archive (doi:10.1021/je4004806).
Numbers after ± are expanded uncertainties.

Assay: xn = mol fraction of the nth substance listed
Settings: 101 kPa, Liquid; for viscosity: Capillary tube (Ostwald / Ubbelohde) method; for mass density: Vibrating tube method

CCCCCO [pentan-1-ol] + CCCCCCCC
Settings	mass density [kg/m3]	viscosity [mPa·s]
293.15 K, x2 = 0	814.59 ± 0.11	4.042 ± 0.022
293.15 K, x2 = 0.1004	798.43 ± 0.63	2.938 ± 0.04
293.15 K, x2 = 0.201	783.65 ± 0.58	2.237 ± 0.029
293.15 K, x2 = 0.3001	770.3 ± 0.53	1.695 ± 0.022
293.15 K, x2 = 0.4	757.91 ± 0.49	1.311 ± 0.017
293.15 K, x2 = 0.4984	746.71 ± 0.46	1.046 ± 0.014
293.15 K, x2 = 0.5967	736.39 ± 0.43	0.863 ± 0.011
293.15 K, x2 = 0.6976	726.7 ± 0.4	0.737 ± 0.01
293.15 K, x2 = 0.7983	717.79 ± 0.37	0.652 ± 0.009
293.15 K, x2 = 0.8998	709.68 ± 0.34	0.588 ± 0.009
298.15 K, x2 = 0	810.93 ± 0.12	3.518 ± 0.02
298.15 K, x2 = 0.1004	794.68 ± 0.63	2.568 ± 0.034
298.15 K, x2 = 0.201	779.81 ± 0.58	1.972 ± 0.025
298.15 K, x2 = 0.3001	766.39 ± 0.54	1.509 ± 0.02
298.15 K, x2 = 0.4	753.94 ± 0.5	1.18 ± 0.015
298.15 K, x2 = 0.4984	742.7 ± 0.46	0.953 ± 0.012
298.15 K, x2 = 0.5967	732.34 ± 0.43	0.796 ± 0.011
298.15 K, x2 = 0.6976	722.64 ± 0.4	0.685 ± 0.01
298.15 K, x2 = 0.7983	713.72 ± 0.37	0.605 ± 0.009
298.15 K, x2 = 0.8998	705.59 ± 0.34	0.55 ± 0.009
303.15 K, x2 = 0	807.24 ± 0.12	3.06 ± 0.018
303.15 K, x2 = 0.1004	790.89 ± 0.63	2.254 ± 0.03
303.15 K, x2 = 0.201	775.94 ± 0.58	1.747 ± 0.022
303.15 K, x2 = 0.3001	762.45 ± 0.54	1.349 ± 0.017
303.15 K, x2 = 0.4	749.95 ± 0.5	1.068 ± 0.014
303.15 K, x2 = 0.4984	738.67 ± 0.46	0.873 ± 0.012
303.15 K, x2 = 0.5967	728.27 ± 0.43	0.736 ± 0.01
303.15 K, x2 = 0.6976	718.55 ± 0.4	0.638 ± 0.01
303.15 K, x2 = 0.7983	709.62 ± 0.37	0.567 ± 0.009
303.15 K, x2 = 0.8998	701.48 ± 0.34	0.516 ± 0.009
308.15 K, x2 = 0	803.53 ± 0.12	2.659 ± 0.016
308.15 K, x2 = 0.1004	787.09 ± 0.64	1.984 ± 0.025
308.15 K, x2 = 0.201	772.05 ± 0.59	1.564 ± 0.019
308.15 K, x2 = 0.3001	758.49 ± 0.54	1.219 ± 0.016
308.15 K, x2 = 0.4	745.93 ± 0.5	0.971 ± 0.013
308.15 K, x2 = 0.4984	734.6 ± 0.46	0.802 ± 0.011
308.15 K, x2 = 0.5967	724.18 ± 0.43	0.682 ± 0.01
308.15 K, x2 = 0.6976	714.44 ± 0.4	0.596 ± 0.009
308.15 K, x2 = 0.7983	705.49 ± 0.37	0.532 ± 0.009
308.15 K, x2 = 0.8998	697.35 ± 0.34	0.486 ± 0.009
313.15 K, x2 = 0	799.79 ± 0.12	2.334 ± 0.015
313.15 K, x2 = 0.1004	783.26 ± 0.64	1.755 ± 0.022
313.15 K, x2 = 0.201	768.13 ± 0.59	1.393 ± 0.017
313.15 K, x2 = 0.3001	754.5 ± 0.54	1.11 ± 0.014
313.15 K, x2 = 0.4	741.88 ± 0.5	0.882 ± 0.012
313.15 K, x2 = 0.4984	730.52 ± 0.47	0.738 ± 0.01
313.15 K, x2 = 0.5967	720.07 ± 0.43	0.636 ± 0.01
313.15 K, x2 = 0.6976	710.3 ± 0.4	0.557 ± 0.009
313.15 K, x2 = 0.7983	701.34 ± 0.37	0.499 ± 0.009
313.15 K, x2 = 0.8998	693.2 ± 0.34	0.457 ± 0.009
318.15 K, x2 = 0	796.03 ± 0.12	2.042 ± 0.013
318.15 K, x2 = 0.1004	779.4 ± 0.65	1.557 ± 0.02
318.15 K, x2 = 0.201	764.17 ± 0.59	1.249 ± 0.015
318.15 K, x2 = 0.3001	750.47 ± 0.55	1.01 ± 0.013
318.15 K, x2 = 0.4	737.81 ± 0.51	0.807 ± 0.011
318.15 K, x2 = 0.4984	726.4 ± 0.47	0.681 ± 0.01
318.15 K, x2 = 0.5967	715.92 ± 0.43	0.589 ± 0.009
318.15 K, x2 = 0.6976	706.14 ± 0.4	0.521 ± 0.009
318.15 K, x2 = 0.7983	697.16 ± 0.37	0.47 ± 0.009
318.15 K, x2 = 0.8998	689.02 ± 0.34	0.431 ± 0.009
323.15 K, x2 = 0	792.23 ± 0.12	1.805 ± 0.013
323.15 K, x2 = 0.1004	775.5 ± 0.65	1.389 ± 0.018
323.15 K, x2 = 0.201	760.18 ± 0.6	1.117 ± 0.014
323.15 K, x2 = 0.3001	746.41 ± 0.55	0.911 ± 0.012
323.15 K, x2 = 0.4	733.69 ± 0.51	0.74 ± 0.011
323.15 K, x2 = 0.4984	722.24 ± 0.47	0.63 ± 0.01
323.15 K, x2 = 0.5967	711.74 ± 0.43	0.549 ± 0.009
323.15 K, x2 = 0.6976	701.94 ± 0.4	0.488 ± 0.009
323.15 K, x2 = 0.7983	692.95 ± 0.37	0.442 ± 0.009
323.15 K, x2 = 0.8998	684.81 ± 0.33	0.406 ± 0.009
